According to patent US7119262B1, “Production of transgenic poinsettia” (priority 1997, dated 2006):
Read-outs that look alike come from different tables or passages of the source. Where no end group is shown, it is not given here.

Experiments:
Bemisia = experiment: Whitefly artificial feeding study with tryptamine-supplemented diets; assay type: in vivo, Bemisia tabaci; conditions: artificial diet
Experimental: To assess whether tryptamine was acutely toxic to whitefly, artificial feeding studies were conducted in which whiteflies were fed artificial diets supplemented with a range of tryptamine concentrations.

Erwinia carotovora = conditions: 24 h
Fusarium graminearum = conditions: non-germinated spores, 24 hrs
Rhyzoctonia solani R2 = conditions: 24 h
Pseudomonas syringae = conditions: 24 h
[1] = system: Phytophthora parasitica (petunia)
Botrytis cinerea = conditions: 24 h
Thielaviopsis basicola = conditions: 24 h
[2] = system: Phytophthora parasitica (vinca); conditions: vinca isolate, 24 hrs
Fusarium solani = conditions: 24 h
[3] = system: bacterial and fungal phytopathogens; experiment: In vitro anti-microbial activity of lytic peptides (statement in words); assay type: cell-based
[4] = system: ethylene-induced epinasty; conditions: plants sprayed with 4 mM solution, 18 hrs later exposed to ethylene for 24 hours
Experimental: To test for ethylene sensitivity, untransformed and transgenic poinsettia plants were exposed to 15 μl/liter ethylene for 24 hours to induce epinasty.
At 18 hrs after STS treatment, the STS-treated poinsettias were exposed to ethylene for 24 hours.

[5] = petunia isolate, germinated spores, 24 hrs

With `NCCc1c[nH]c2ccccc12` [Tryptamine, tryptamine] the “tryptamine concentration toxic to Bemisia” value (Bemisia) was 50 to 100 µg/mL.

In the case of “GIGKFLHSAKKFGKAFVGEIMNS [Mag 2, magainin 2, reference compound]”, the “Minimum Inhibitory Concentration” value (Erwinia carotovora) is reported as 32 µg/mL, the “Minimum Inhibitory Concentration” value (Fusarium graminearum) is reported as 4 to 8 µg/mL and the “Minimum Inhibitory Concentration” value (Rhyzoctonia solani R2) is reported as 16 to 32 µg/mL. For the same compound, the “Minimum Inhibitory Concentration” value (Pseudomonas syringae) was 32 µg/mL and the “Minimum Inhibitory Concentration” value ([1]; 24 h) was greater than 128 µg/mL.

For GIGKFLKSAKKFGKAFVKILNS [MSI-99], the “Minimum Inhibitory Concentration” value (Fusarium graminearum) was 4 µg/mL, the “Minimum Inhibitory Concentration” value (Botrytis cinerea) was 8 µg/mL and the “Minimum Inhibitory Concentration” value (Thielaviopsis basicola) was 4 µg/mL. The “Minimum Inhibitory Concentration” value (Rhyzoctonia solani R2) was 16 µg/mL and the “Minimum Inhibitory Concentration” value ([1]; 24 h) was 8 to 16 µg/mL.

For GMASKAGAIAGKIAKVALKAL-OH [PGL], the “Minimum Inhibitory Concentration” value ([2]; germinated spores) was greater than 128 µg/mL, the “Minimum Inhibitory Concentration” value ([2]; non-germinated spores) was greater than 256 µg/mL and the “Minimum Inhibitory Concentration” value (Erwinia carotovora) was 32 µg/mL. The “Minimum Inhibitory Concentration” value (Fusarium graminearum) was 4 to 8 µg/mL, the “Minimum Inhibitory Concentration” value (Rhyzoctonia solani R2) was 16 to 32 µg/mL and the “Minimum Inhibitory Concentration” value (Pseudomonas syringae) was greater than 64 µg/mL. For the same compound, the “Minimum Inhibitory Concentration” value [1, 5] was greater than 128 µg/mL.

“KRKRAVKRVGRRLKKLARKIARLGVAF [Line D5-C, D5-C]” was tested, and the “Minimum Inhibitory Concentration” value (Fusarium solani) was 4 µg/mL, the “Minimum Inhibitory Concentration” value ([2]; germinated spores) was 16 to 32 µg/mL and the “Minimum Inhibitory Concentration” value ([2]; non-germinated spores) was 16 µg/mL. For the same compound, the “Minimum Inhibitory Concentration” value (Thielaviopsis basicola) was 16 µg/mL, the “Minimum Inhibitory Concentration” value (Rhyzoctonia solani R2) was 32 to 64 µg/mL and the “Minimum Inhibitory Concentration” value [1, 5] was 16 to 32 µg/mL.

With MSI-55 (KIAGKIAKIAGKIAKIAGKIA) the “antibacterial and anti-fungal activity in vitro” value [3] was “potent antibacterial and anti-fungal activity”.

With silver thiosulfate [STS] the “signs of epinasty or wilting after ethylene treatment” value [4] was “little, if any, signs of epinasty or wilting”.
